This experiment concerns HFD-fed mice. In words: RIPA-56 feeding experiment in HFD-fed mice (NASH/steatosis model). The class given is in vivo, C57BL/6J mice. As to the method:
FIG. 2. RIPA-56 treatment improves liver inflammation and fibrosis in HFD-fed mice. Six-week-old male C57BL/6J mice (n=5 per group) were fed either with normal control diet (NCD) or high-fat diet (HFD) supplemented or not with RIPA-56, according to prophylactic (“Pro”) or curative (“Cur”) designs for 16 weeks, the time necessary for an inflammatory and fibrotic response to develop. Differences between mice were determined by analysis of variance (ANOVA) with Bonferroni's multiple comparison. (A) Schematic representation of the experimental design; (B) Immunoblot analyses of whole liver protein extracts from mice fed NCD (1 to 3), HFD (4 to 6), HFD with RIPA-56 “Pro” (7 to 9), or HFD with RIPA-56 “Cur” (10 to 12) using antibodies against RIPK1, MLKL, RIPK3 and GAPDH as loading control; (C) Serum analysis of ALT; (D) Immuno-histochemical analysis of F4/80 on representative liver tissue sections from mice of each group; (E) Quantitative analysis of F4/80^+ foci using ImageJ software, 10 pictures per mouse were quantified; (F) F4/80, Mcp-1 and Tnf mRNA levels were assessed by RT-qPCR. (G) Representative Sirius Red staining of liver tissue section from mice of each group; (H) Quantification of light polarized Sirius Red pictures, 10 pictures per mouse were analyzed; (I) Collal mRNA levels were assessed by RT-qPCR. All data are expressed as mean±SEM; *p<0.05; **p<0.01; ***p<0.001. Scale bars indicate 50 μm.
FIG. 5. RIPA-56 treatment improves HFD-induced obesity and steatosis in mice. Six-week-old male C57BL/6J mice (n=5 per group) were fed either NCD or HFD supplemented or not with RIPA-56 for 16 weeks, as depicted in FIG. 2A, to analyze the metabolic status of the mice. (A) Body weight gain in mice of the 4 groups. No significant change in (B) food intake, (C) spontaneous locomotor activity, or (D) respiratory exchange ratio (RER) in mice Of the 4 groups; (E) Whole energy expenditure was evaluated during daylight and night in mice of the 4 groups; (F) Representative H&E staining of liver tissue sections from mice of the 4 groups. Scale bars, 50 μm; (G) Steatosis score of liver tissue sections was evaluated blinded; (H) Intrahepatic triglyceride contents were measured in two liver samples per mouse. Results are shown as mean±SEM; *p<0.05; **p<0.01; ***p<0.001.
FIG. 6. Fat and lean mass in prophylactically- and curatively-treated mice compared with control mice under HFD. (A) Body fat mass and relative body fat content, and (B) lean mass and relative lean content were evaluated in HFD-fed mice using MRI analysis. All results are shown as mean±SEM; n=5 per group; *p<0.05. Differences between groups were determined by one-way ANOVA with Bonferroni's multiple comparison.
Six-week-old male C57BL/6J mice (Charles River Laboratories, Ecully, France) were fed a high-fat diet (HFD—45 kcal % fat) or a normal chow diet (NCD) (Ssniff spezialdiäten GmbH, Soest, Germany) for 16 weeks (the time necessary for an inflammatory and fibrotic response to develop).
RIPA-56 (MedChemExpress, Stockholm, Sweden) was incorporated in diet by Ssniff spezialdiäten GmbH (Soest, Germany) according to a standardized protocol. Ssniff company is an approved manufacturer of laboratory animal diets and has the license to produce medicated feed for laboratory animals in accordance with Directive 2001/82/EC. Before the end of the feeding period, mice were single housed for one week in metabolic cages to measure food intake, respiratory exchange ratio (RER), energy expenditure and spontaneous locomotor activity using a LabMaster indirect calorimetry system (TSE Systems GmbH, Bad Homburg, Germany). Mice were sacrificed under anesthesia and blood was collected via intracardiac puncture procedure. Tissue samples were either directly snap-freezed in liquid nitrogen for molecular analysis or fixed in 4% PFA and embedded in paraffin for histological analysis. […]

As to `CCC(C)(C)C(=O)N(O)Cc1ccccc1` [RIPA-56, N-Benzyl-N-hydroxy-2,2-dimethylbutanamide], under “HFD 16 weeks, 300 mg/kg in diet, both prophylactic and curative treatments”, the “MLKL and RIPK3 expression in liver (Western blot)” value is “repressed”. Further, where the note is “HFD-fed mice”, the “hepatic fat content by blinded histological analyses” value is recorded as “marked decrease” and the “hepatic triglyceride content, reduction” value was 30-40%. Moreover, under “RIPA-56-treated HFD-fed mice”, the “increments in liver mRNA levels of Ccl20, Nlrp3 or Il-1b” value is reported as “abrogated or reduced”. The “expression of RIPK1 in liver” value (Western blot and RT-qPCR) is on record as “not impacted”. For the same compound, the steatosis entry (both curative and prophylactic settings) is listed as “largely reduced”. Also, the “increase of serum alanine aminotransferase (ALT)” value (both prophylactic and curative settings) is “abolished”. Moreover, the “macrophage infiltration (hepatic F4/80 immunostaining)” value (both prophylactic and curative treatments) is given as “suppressed”. Where the note is “both regimens”, the “liver mRNA levels of F4/80 and Mcp-1, difference HFD vs NCD” value was “disappeared”. In addition, the “mRNA levels of MLKL and RIPK3 in liver” value (both regimens, RT-qPCR) was “decreased”. The “body weight gain, fat- or lean-mass vs untreated HFD-fed mice” value (curative setting, start after 12 weeks of HFD) is listed as “did not result in differences”. Besides, where the note is “curative treatment”, the “Collagen-1a1 (Col1a1) mRNA levels in liver” value was “reduced”, the “TNFα expression in liver” value is “markedly reduced” and the “intensity of histologic features of NASH” value is “largely attenuates”. The “pericellular fibrosis (Sirius red staining)” value (prophylactic and curative treatments) was “virtually disappeared”. In addition, under “prophylactic setting”, the “MLKL and RIPK3 expression in liver (Western blot)” value is on record as “almost complete inhibition”; the “body weight gain, lower than untreated HFD-fed mice” value was about 12%; the “fat and relative fat mass (MRI)” value is given as “significant decrease”; the “lean and relative lean body mass (MRI)” value is recorded as “trend towards increased”. In addition, where the note is “prophylactic treatment”, the “Collagen-1a1 (Col1a1) mRNA levels in liver” value was “no longer increased”, the “histologic features of NASH” value is “prevents” and the “increase of TNFα expression in liver” value is “not after RIPA-56 prophylactic treatment”. The “energy expenditure (indirect calorimetry)” value (prophylactic treatment vs curative or no treatment) is on record as “increased”.

For the origin of these results see US12653796B2, “Compounds for use (in particular RIPA-56) in the prevention and/or treatment of non-alcoholic fatty liver disease” (SORBONNE UNIVERSITE, priority 2019, dated 2026).
